From article PMC2997942 (Molecular pharmaceutics, 2010)
Read-outs that look alike come from different tables or passages of the source.

What was measured:
OCTN2 [1] = target: T1, OCTN2 (Homo sapiens, UniProt O76082); conditions: read-out: Ki or IC50; Caki-1 (human proximal tubule cell line); cited from earlier work
T1 sequence (O76082 1-557): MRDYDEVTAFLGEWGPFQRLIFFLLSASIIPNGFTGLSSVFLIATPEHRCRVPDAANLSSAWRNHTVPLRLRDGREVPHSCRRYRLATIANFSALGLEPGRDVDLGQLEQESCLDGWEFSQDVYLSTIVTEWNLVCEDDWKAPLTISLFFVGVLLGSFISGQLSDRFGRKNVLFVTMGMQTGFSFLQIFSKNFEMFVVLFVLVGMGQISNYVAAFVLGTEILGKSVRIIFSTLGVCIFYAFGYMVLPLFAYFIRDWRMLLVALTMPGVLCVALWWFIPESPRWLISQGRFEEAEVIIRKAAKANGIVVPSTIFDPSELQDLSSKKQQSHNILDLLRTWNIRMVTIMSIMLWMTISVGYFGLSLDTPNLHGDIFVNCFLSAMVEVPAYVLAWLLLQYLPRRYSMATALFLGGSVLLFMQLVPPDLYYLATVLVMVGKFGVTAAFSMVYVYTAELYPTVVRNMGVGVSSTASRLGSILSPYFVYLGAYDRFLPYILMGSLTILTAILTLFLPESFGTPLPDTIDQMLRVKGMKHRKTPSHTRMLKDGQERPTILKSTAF

OCTN2 [2] = target: T1, OCTN2; conditions: hOCTN2-Transfected MDCKII Cells, cited from earlier work; for Ki: read-out: Ki or IC50
[3] = clinical; ref Supplemental Table S6 references 1-19; cited from earlier work
OCTN2 [4] = target: T1, OCTN2; conditions: read-out: Ki or IC50; L6 cells overexpressing hOCTN2; cited from earlier work
human OCTN2 = conditions: read-out: Ki or IC50; Hela with human OCTN2; cited from earlier work
OCTN2 [5] = target: T1, OCTN2; assay: Inhibition of L-carnitine uptake in stably transfected hOCTN2-MDCK cells; assay type: cell-based; conditions: Observed Ki (±SEM), test set, 10 min, competitive inhibition model
[6] = in vivo; cited from earlier work
rat OCTN2 [7] = conditions: L6 stable cell line with rat OCTN2; cited from earlier work
OCTN2 [8] = target: T1, OCTN2; conditions: read-out: Ki or IC50; BeWo (human placental cell line); cited from earlier work
OCTN2 [9] = conditions: Mouse enterocyte; cited from earlier work
Rat kidney OCTN2 = conditions: read-out: Ki or IC50; Rat kidney OCTN2 reconstituted in liposomes; cited from earlier work
rat OCTN2 [10] = conditions: read-out: Ki or IC50; HEK stable cell line with rat OCTN2; cited from earlier work
[11] = tested on: Mouse myoblastic C2C12 cells; conditions: read-out: Ki or IC50; cited from earlier work

## CCCC[N+]1(C)C2CC(OC(=O)C(CO)c3ccccc3)CC1C1OC12 (single isomer, unassigned; (-)) [(−)-N- butylscopolamine]
OCTN2 [1]
  Ki: 1010 µM

## CCCC(=O)Nc1ccc(OCC(O)CNC(C)C)c(C(C)=O)c1 (stereo not drawn) [Acebutolol]
OCTN2 [2]
  Ki or IC50: Not inhibitor
[3]
  Documented to cause rhabdomyolysis and/or carnitine deficiency in the literature: No

## C[C@H](CS)C(=O)N1CCC[C@H]1C(=O)O [Captopril]
OCTN2 [2]
  Ki or IC50: Not inhibitor

## Cc1nnc(SCC2=C(C(=O)O)N3C(=O)[C@@H](NC(=O)Cn4cnnn4)[C@H]3SC2)s1 [Cefazolin]
OCTN2 [4]
  Ki: 6740 µM

## CO/N=C(\C(=O)N[C@@H]1C(=O)N2C(C(=O)[O-])=C(C[N+]3(C)CCCC3)CS[C@H]12)c1csc(N)n1 [Cefepime]
Human OCTN2
  Ki: 1700 µM

## CO/N=C(\C(=O)N[C@@H]1C(=O)N2C(C(=O)[O-])=C(C[n+]3ccc(N)n3CCO)CS[C@H]12)c1csc(N)n1 [Cefoselis]
[3]
  Documented to cause rhabdomyolysis and/or carnitine deficiency in the literature: Yes[3]
Human OCTN2
  Ki: 6400 µM

## CO/N=C(\C(=O)N[C@@H]1C(=O)N2C(C(=O)O)=C(COC(N)=O)CS[C@H]12)c1ccco1 [Cefuroxime]
OCTN2 [4]
  Ki: 525 µM
[3]
  Documented to cause rhabdomyolysis and/or carnitine deficiency in the literature: Yes[9]

## O=C(Cc1cccs1)N[C@@H]1C(=O)N2C(C(=O)[O-])=C(C[n+]3ccccc3)CS[C@H]12 [Cephaloridine]
Human OCTN2
  Ki: 230 µM

## O=C(O)COCCN1CCN(C(c2ccccc2)c2ccc(Cl)cc2)CC1 (stereo not drawn) [Cetirizine]
[3]
  Documented to cause rhabdomyolysis and/or carnitine deficiency in the literature: No

## CN/C(=N/CCSCc1nc[nH]c1C)NC#N [Cimetidine]
[3]
  Documented to cause rhabdomyolysis and/or carnitine deficiency in the literature: No

## COc1cc(N)c(Cl)cc1C(=O)NC1CCN(CCCOc2ccc(F)cc2)CC1OC (stereo not drawn) [Cisapride]
[3]
  Documented to cause rhabdomyolysis and/or carnitine deficiency in the literature: Yes[13]
OCTN2 [5]
  Ki: 66.7 ± 9.8 µM

## N.N.[Cl][Pt][Cl] [Cisplatin]
[6]
  Cmax: 8130 nM
Rat OCTN2 [7]
  Ki or IC50: Not inhibitor
[3]
  Documented to cause rhabdomyolysis and/or carnitine deficiency in the literature: Yes[19]

## COc1cccc2c1C(=O)c1c(O)c3c(c(O)c1C2=O)C[C@@](O)(C(C)=O)C[C@@H]3O[C@H]1C[C@H](N)[C@H](O)[C@H](C)O1 [Daunorubicin]
[3]
  Documented to cause rhabdomyolysis and/or carnitine deficiency in the literature: No
OCTN2 [5]
  Ki: 502 ± 41 µM

## C[C@H]1O[C@@H](O[C@H]2[C@@H](O)C[C@H](O[C@H]3[C@@H](O)C[C@H](O[C@H]4CC[C@@]5(C)[C@H](CC[C@@H]6[C@@H]5C[C@@H](O)[C@]5(C)[C@@H](C7=CC(=O)OC7)CC[C@]65O)C4)O[C@@H]3C)O[C@@H]2C)C[C@H](O)[C@@H]1O [Digoxin]
OCTN2 [2]
  Ki or IC50: Not inhibitor

## O=C1[C@H](CC[C@H](O)c2ccc(F)cc2)[C@@H](c2ccc(O)cc2)N1c1ccc(F)cc1 [Ezetimibe]
[3]
  Documented to cause rhabdomyolysis and/or carnitine deficiency in the literature: Yes with statin[15]
OCTN2 [5]
  Ki: 29.3 ± 5 µM

## NC(N)=Nc1nc(CSCCC(N)=NS(N)(=O)=O)cs1 [Famotidine]
OCTN2 [1]
  Ki: 1920 µM
[3]
  Documented to cause rhabdomyolysis and/or carnitine deficiency in the literature: Yes[18]

## NS(=O)(=O)c1cc(C(=O)O)c(NCc2ccco2)cc1Cl [Furosemide]
[3]
  Documented to cause rhabdomyolysis and/or carnitine deficiency in the literature: No

## NCC1(CC(=O)O)CCCCC1 [Gabapentin]
[3]
  Documented to cause rhabdomyolysis and/or carnitine deficiency in the literature: No

## Cc1c(F)c(N2CCNC(C)C2)cc2c1c(=O)c(C(=O)O)cn2C1CC1 (stereo not drawn) [Grepafloxacin]
OCTN2 [8]
  Ki: 300 µM

## CCc1c2c(nc3ccc(OC(=O)N4CCC(N5CCCCC5)CC4)cc13)-c1cc3c(c(=O)n1C2)COC(=O)[C@]3(O)CC [Irinotecan]
OCTN2 [5]
  Ki: 219 ± 18 µM

## CCN(CC)CC(=O)Nc1c(C)cccc1C [Lidocaine]
OCTN2 [9]
  Ki or IC50: Not inhibitor
[3]
  Documented to cause rhabdomyolysis and/or carnitine deficiency in the literature: No

## CC12CC3CC(C)(C1)CC(N)(C3)C2 [Memantine]
OCTN2 [2]
  Ki or IC50: Not inhibitor
[3]
  Documented to cause rhabdomyolysis and/or carnitine deficiency in the literature: No

## CN(C)C(=N)N=C(N)N [Metformin]
OCTN2 [1]
  Ki: 4960 µM
[3]
  Documented to cause rhabdomyolysis and/or carnitine deficiency in the literature: Yes[14]

## COCCc1ccc(OCC(O)CNC(C)C)cc1 (stereo not drawn) [Metoprolol]
OCTN2 [2]
  Ki or IC50: Not inhibitor

## C[N+](C)(C)NCCC(=O)[O-] [Mildronate]
OCTN2 [2]
  Ki: 26 µM
[3]
  Documented to cause rhabdomyolysis and/or carnitine deficiency in the literature: No

## CNC(=C[N+](=O)[O-])NCCSCc1csc(CN(C)C)n1 [Nizatidine]
[3]
  Documented to cause rhabdomyolysis and/or carnitine deficiency in the literature: No
OCTN2 [5]
  Ki: 183 ± 17 µM

## COc1ccc2[nH]c([S+]([O-])Cc3ncc(C)c(OC)c3C)nc2c1 (stereo not drawn) [Omeprazole]
Rat kidney OCTN2
  Ki: 14.6 µM
[3]
  Documented to cause rhabdomyolysis and/or carnitine deficiency in the literature: Yes[6]

## O=C1[O][Pt]2([NH][C@@H]3CCCC[C@H]3[NH]2)[O]C1=O [Oxaliplatin]
Rat OCTN2 [7]
  Ki or IC50: Not inhibitor
[3]
  Documented to cause rhabdomyolysis and/or carnitine deficiency in the literature: No

## OC1(c2ccc(Cl)c(C(F)(F)F)c2)CCN(CCCC(c2ccc(F)cc2)c2ccc(F)cc2)CC1 [Penfluridol]
[3]
  Documented to cause rhabdomyolysis and/or carnitine deficiency in the literature: No
OCTN2 [5]
  Ki: 26.5 ± 4.1 µM

## CCCN(CCC)S(=O)(=O)c1ccc(C(=O)O)cc1 [Probenecid]
OCTN2 [9]
  Ki or IC50: Not inhibitor
[3]
  Documented to cause rhabdomyolysis and/or carnitine deficiency in the literature: No

## COC(=O)[C@H]1[C@H]2C[C@@H]3c4[nH]c5cc(OC)ccc5c4CCN3C[C@H]2C[C@@H](OC(=O)c2cc(OC)c(OC)c(OC)c2)[C@@H]1OC [Reserpine]
[3]
  Documented to cause rhabdomyolysis and/or carnitine deficiency in the literature: No
OCTN2 [5]
  Ki: 32.2 ± 4.8 µM

## Cc1nc2n(c(=O)c1CCN1CCC(c3noc4cc(F)ccc34)CC1)CCCC2 [Risperidone]
[3]
  Documented to cause rhabdomyolysis and/or carnitine deficiency in the literature: Yes with statin[17]

## CC(C)c1nc(CN(C)C(=O)N[C@H](C(=O)N[C@@H](Cc2ccccc2)C[C@H](O)[C@H](Cc2ccccc2)NC(=O)OCc2cncs2)C(C)C)cs1 [Ritonavir]
[3]
  Documented to cause rhabdomyolysis and/or carnitine deficiency in the literature: Yes with statin[5]

## CC[C@H]1OC(=O)[C@H](C)[C@@H](O[C@H]2C[C@@](C)(OC)[C@@H](O)[C@H](C)O2)[C@H](C)[C@@H](O[C@@H]2O[C@H](C)C[C@H](N(C)C)[C@H]2O)[C@](C)(O)C[C@@H](C)/C(=N\OCOCCOC)[C@H](C)[C@@H](O)[C@]1(C)O [Roxithromycin]
[3]
  Documented to cause rhabdomyolysis and/or carnitine deficiency in the literature: Yes with statin[10]
OCTN2 [5]
  Ki: 333 ± 25 µM

## CC(=O)S[C@@H]1CC2=CC(=O)CC[C@]2(C)[C@H]2CC[C@@]3(C)[C@@H](CC[C@@]34CCC(=O)O4)[C@H]12 [Spironolactone]
OCTN2 [2]
  Ki: 26 µM
[3]
  Documented to cause rhabdomyolysis and/or carnitine deficiency in the literature: No

## Nc1c2c(nc3ccccc13)CCCC2 [Tacrine]
[6]
  Cmax: 134 nM
Rat OCTN2 [10]
  Ki: 500 µM

## CCCC(CCC)C(=O)O [Valproic acid]
[3]
  Documented to cause rhabdomyolysis and/or carnitine deficiency in the literature: Yes[1]

## CC[C@]1(O)C[C@H]2CN(CCc3c([nH]c4ccccc34)[C@@](C(=O)OC)(c3cc4c(cc3OC)N(C=O)[C@H]3[C@@](O)(C(=O)OC)[C@H](OC(C)=O)[C@]5(CC)C=CCN6CC[C@]43[C@@H]65)C2)C1 [Vincristine]
[3]
  Documented to cause rhabdomyolysis and/or carnitine deficiency in the literature: Yes[8]

## CCC1=C[C@@H]2CN(C1)Cc1c([nH]c3ccccc13)[C@@](C(=O)OC)(c1cc3c(cc1OC)N(C)[C@H]1[C@@](O)(C(=O)OC)[C@H](OC(C)=O)[C@]4(CC)C=CCN5CC[C@]31[C@@H]54)C2 [Vinorelbine]
[3]
  Documented to cause rhabdomyolysis and/or carnitine deficiency in the literature: No
OCTN2 [5]
  Ki: 26.8 ± 1.5 µM

## Cc1cn([C@H]2C[C@H](N=[N+]=[N-])[C@@H](CO)O2)c(=O)[nH]c1=O [Zidovudine]
[11]
  Ki: 6 µM

## Ciclotropium
[6]
  Cmax: 20.6 nM
OCTN2 [1]
  Ki: 30 µM
[3]
  Documented to cause rhabdomyolysis and/or carnitine deficiency in the literature: No
